{"source": "patent US9963474B2", "about": "“Mitochondria-targeted dicarbonyl sequestering compounds” (MEDICAL RESEARCH COUNCIL, priority 2013, dated 2018)", "key": {"[1]": {"test_system": "BAECs", "assay": "Cellular oxygen consumption rate, Seahorse XF24", "type": "cell-based, bovine", "description": "(A, B) RLM respiring on glutamate/malate at 37° C. were incubated with various concentrations of MitoG for 7 min in an oxygen electrode to measure coupled respiration (A) before ADP was added to measure phosphorylating respiration (B). Data are the percentage of the respiration rates of untreated controls (dashed lines). (C and D) C2C12 cells (C) or BAECs [Bovine Aortic Endothelial Cells; Cell Applications Inc, San Diego, Calif.] (D) were incubated with MitoG for 24 h and cell survival was then determined using the MTS assay. Data are expressed as a percentage of the untreated controls (dashed line). (E-H) BAECs were incubated with MitoG for 2 h at 37° C. and the cellular oxygen consumption rate (OCR) after the sequential additions of oligomycin, FCCP and antimycin A/rotenone were then measured using a Seahorse XF24 analyser. (E) OCR due to ATP synthesis, (F) OCR due to proton leak, (G) reserve capacity and (H) non-mitochondrial oxygen consumption. Results are means±S.E. of three independent experiments. *, P<0.05 or **, P<0.01 relative to untreated controls.\nThe Seahorse XF24 extracellular flux analyser was used to assess cellular oxygen consumption rate (OCR). […] OCR was determined as follows: cells were washed twice in assay medium [4.15 g/l DMEM base, 1.85 g/l NaCl, ix glutamax (Invitrogen), 1 mM sodium pyruvate, 5 mM D-glucose, 15 mg/l phenol red, 20 mM HEPES and 0.4% (v/v) FCS, pH 7.4] and incubated in 630 μl assay medium for 1 h at 37° C. in air. After 20 min equilibration basal OCR was determined and after 3 h incubation with MitoG sequential injections of oligomycin (1 μg/ml), FCCP (2 μM) and rotenone/antimycin A (4 μg/ml and 5 μM, respectively). OCRs were normalized to cell number as measured using the sulphorhodamine B (SRB) assay as follows: cells were fixed (200 μl 5% trichloroacetic acid at 4° C. for 1 h), washes with water (×3), stained for 20 min with 50 μl 0.4% (w/v) SRB in 1% (v/v) acetic acid, washed (3×1% acetic acid) and the incorporated SRB dye solubilised in 100 μl 10 mM Tris base for 5 min. […]"}, "[2]": {"assay": "Reaction rate with methylglyoxal (UV/Vis and fluorometric kinetics)", "details": "37° C., means±SE, n=3", "description": "(A) The reactions between MitoG (100 μM) and 1,2-dicarbonyls (25 μM) at 37° C. were followed from the formation of the quinoxaline products at 345 nm. (B) Fluorimetric detection of the reaction between MitoG and methylglyoxal (40 μM each), and between MitoG and glyoxal (200 μM each) was observed by monitoring the quinoxaline products at excitation and emission wavelengths of 344 and 433 nm, respectively. The changes in fluorescence caused by MQE and QE formation was quantified from calibration curves constructed by plotting fluorescence (excitation and emission wavelengths of 344 and 433 nm, respectively) against known amounts of either quinoxaline and were linear up to at least 20 μM.\nTPP-conjugated compounds were made up as 10 mM stock solutions in DMSO, flushed with argon and stored as aliquots at −20° C. […] The molar extinction coefficients were calculated from the absorbance at maximal absorption (λmax) for the compounds for solutions of known concentration. Reaction rates between MitoG and 1,2-dicarbonyls were determined from the initial linear slope over the first 30 s at the λmax for the formation of the relevant quinoxaline. Fluorescence spectra were obtained in 2.5 ml KCl buffer using a Shimadzu RF-301PC fluorimeter with slit widths of 3 nm. […]"}}}
{"smiles": "Nc1ccc(OCCCCCC[P+](c2ccccc2)(c2ccccc2)c2ccccc2)cc1N", "note": "[MitoG, (6-(3,4-Diaminophenoxy)hexyl)triphenylphosphonium chloride]", "values": [{"measurement": "OCR due to proton leak", "setting": "[1]; 2-5 μM", "result": "trend to an increased OCR due to proton leak"}, {"measurement": "respiratory reserve capacity", "setting": "[1]; 2-5 μM", "result": "decreased respiratory reserve capacity"}, {"measurement": "OCR due to ATP synthesis", "setting": "[1]; concentrations above 10 μM", "result": "slightly decreased"}, {"measurement": "rate constant for reaction with methylglyoxal", "setting": "[2]", "result": "19 ± 1", "unit": "M⁻¹ s⁻¹"}]}
